The test system of data set [1] is larvae of the genus Meloydogine, Heterodera and Globodera. The conditions noted are these: laboratory tests.
Data set [2] concerns M. incognita nematodes. From the text: The trial was followed by a test center (third body) in the Vittoria area (RG) in greenhouses with continuous cycles of courgette (Cucurbita pepo) subjected to strong pressure of M. incognita nematodes. […] First application at day 1 after transplantation (DAT), second application at day 7 DAT, third application at day 21 DAT.
The follow-up was scheduled at day 45 (FIG. 5 and FIG. 6) and day 90 after the first treatment. […] Following this screening trial, new large-scale tests will begin to establish optimal doses, modes and volume of distribution. From Table 3 below, it was possible to evaluate the % of nematode attack with a count of the damage present on the root system (galls).

Data set [3] relates to Meloidogyne J2 larvae. The data set can be described thus: Motility/mortality test on Meloidogyne J2 larvae in suspension. It is filed as in vivo. The conditions noted are these: single replicates; for READING % IMMOBILE J2 @ 2 H: 2 h exposure; for % DEAD J2 @ 24 H: 24 h exposure. The method, then: Extraction of root-knot nematodes taken from soil cultivated with basil (Ocimum basilicum) with strong infestation (J2 larvae) from about 500 cc of soil by means of a wool-paper filter (EPPO Bulletin 13,2013) and concentration in distilled water.
The Tests were established by adding an amount of stock solution to one ml of nematode suspension, so as to obtain the final established concentrations.
Nematodes motility parameters were evaluated after 2 h and after 24 h exposure of the J2 larvae to the nematocidal substance.
In the first test, the count was carried out by microscopic observation of immobile nematodes after 2 hours exposure to the product, to evaluate a possible […] effect of the substance. In the second test, the count was carried out by microscopic observation of the nematodes considered dead with strong signs of tissue degeneration (thickening and blistering in the nematode body accompanied by the final folding of the body at right angle).

For data set [4], the system named is nematodes. Conditions: laboratory test in a jar, after application. The text has this: A dose ranging from 0.0001% to 0.001% is considered a “sub-lethal” or “nematostatic” dose, and therefore is a dose which may not kill the nematode but inhibits its mobility and pest capacity.
For data set [5] the following is noted: OECD Test Guideline 402; cited from earlier work.
Data set [6] has as its system Meloidogyne incognita eggs. The method, then: In order to evaluate the efficacy in containing the root-knot nematode Meloidogyne incognita, several in vitro experimental tests were carried out using a sorbic acid solution containing 1 mg/ml of active substance at 98% purity. The average of the tests is reported.
This test concentration was tested on unsegmented and embryonated eggs of M. incognita.
The tests carried out were developed in vitro using double concave glass lenses, by introducing 2 ml of the test solution containing 1 mg/ml of sorbic acid, or sterile water in the case of the control. The incubation took place at a room temperature of 22° C., in the dark. The population of M. incognita was from plants raised in an open field of tomatoes (Solanum lycopersicum).
Unsegmented and embryonated eggs: the eggs were collected from the ovisacs and placed in a double concave glass lens in the presence of the solution to be tested.
Counts of hatched larvae were carried out for 7 days with daily counting and microscopic observation.

For data set [7] the following is noted: OECD Test Guideline 403; cited from earlier work.
The subject of data set [8] is insects or mites. The conditions noted are these: laboratory tests.
For data set [9] the following is noted: 25° C.; cited from earlier work.
The mark [10] stands for this setting: TEST 1: Potassium Sorbate (80% purity) 250 μg/ml.
[11] abbreviates: TEST 2: Potassium Sorbate 500 μg/ml.
The mark [12] stands for this setting: TEST 3: Potassium Sorbate 1 mg/ml.

Several values for one entry are separate records, joined by “and”; a condition that tells them apart may be missing. Identical values can stand only once. Bounds are passed on as bounds.

As for `C/C=C/C=C/C(=O)[O-].C/C=C/C=C/C(=O)[O-].[Ca+2]` [Calcium Sorbate, calcium sorbate], the “effect on larvae of the genus Meloydogine, on Heterodera and Globodera” value (“effect on larvae” below) in data set [1] is “had an effect”.
For the compound `C/C=C/C=C/C(=O)[O-].[K+]` [Potassium Sorbate, potassium sorbate], the “Average weight of a courgette” value in data set [2] (10 kg/ha) is on record as 0.24 kg. Moreover, the “Average production of a plant, No. courgettes” value in [2] (10 kg/ha, mean of 20 plants) is 15.75. Further, in [2] (10 kg/ha, mean of 20 plants), the “Average production of a plant, Weight in kg” value is on record as 3.78 kg. In data set [2] (field application, courgette), the “toxicity or damage of the root system” value is “without leading to toxicity or damage of the root system”. Also, in data set [1], the “effect on larvae” value is reported as “had an effect”. The “READING % IMMOBILE J2 @ 2 H” value in data set [3] (setting [10]) is 10% and 5% and 7% and 2%; in [3] (setting [11]), 40% and 38% and 45% and 43%; in data set [3] (setting [12]) it was 75% (2×) and 78% and 80%. In addition, the “% DEAD J2 @ 24 H” value was 15% and 12% and 18% and 10% in data set [3] (setting [10]); 80% and 76% and 75% (2×) in data set [3] (setting [11]); 98% and 99% and 100% and 96% in data set [3] (setting [12]).
Consider `C/C=C/C=C/C(=O)[O-].[Na+]` [Sodium Sorbate, sodium sorbate], for which the “effect on larvae” value in data set [1] was “had an effect”.
In the case of `C/C=C/C=C/C(=O)O` [Sorbic Acid, 2,4-hexadienoic acid], the “nematostatic effect: number of immature forms” value in data set [4] is given as “a greater number of immature forms”. Moreover, the “Lethal Dose 50: LD50” value in [5] was greater than 3000 mg/kg. The “hatched larvae, Day 1 DAT” value in data set [6] (1 mg/ml sorbic acid (98% purity), 22° C., dark, Day 1, average of tests) was determined as 0. In [6] (1 mg/ml sorbic acid, 22° C., dark, Day 2, average of tests), the “hatched larvae, Day 2 DAT” value turned out to be 0%. In addition, the “hatched larvae, Day 3 DAT” value in data set [6] (1 mg/ml sorbic acid, 22° C., dark, Day 3, average of tests) is 0%. The “hatched larvae, Day 4 DAT” value in [6] (1 mg/ml sorbic acid, 22° C., dark, Day 4, average of tests) amounted to 0%. In [6] (1 mg/ml sorbic acid, 22° C., dark, Day 5, average of tests), the “hatched larvae, Day 5 DAT” value came out at 0%. Further, the “hatched larvae, Day 6 DAT” value in data set [6] (1 mg/ml sorbic acid, 22° C., dark, Day 6, average of tests) is listed as 1%. Further, in data set [6] (1 mg/ml sorbic acid, 22° C., dark, Day 7, average of tests), the “hatched larvae, Day 7 DAT” value stood at 3%. Further, the “efficacy on egg embryogenesis and larvae” value in [6] (1 mg/ml sorbic acid, in vitro) is “allowing the inhibition of egg embryogenesis and excellent action on larvae, both free and included in ovisacs”. The “Lethal Concentration 50: LC50” value in [7] was 5.1 mg·L. Moreover, the “effect on larvae” value in data set [1] is listed as “had an effect”. In [8], the “insecticidal or acaricidal activity” value is listed as “no insecticidal activity (insect kingdom) or acaricidal activity has been found”. Besides, the “partition coefficient: n-octanol/water, log Pow” value in [9] is recorded as 1.32.
Consider “Abamectin [REFERENCE, reference compound]”, for which, in data set [3] (Reference: Abamectin 90 μg/ml), the “READING % IMMOBILE J2 @ 2 H” value is 100% and 99% (2×) and 98%; the “% DEAD J2 @ 24 H” value was 100% (3×) and 99%.

These data come from patent publication US20240172747A1, “USE OF SORBIC ACID AND SALTS THEREOF AS A NEMATOCIDE” (GONELLA INVENT SOCIETA' A RESPONSABILITA' LIMITATA […], priority 2021, published 2024).
